Experimental findings from patent publication US11766434B2, “Pyrimidinone derivatives as CDC7 inhibitors” (Cancer Research Technology Limited, priority 2016, dated 2023) are described below.

SMILES strings stand for the structures.

The target in one assay is Cdc7/Dbf4 (Homo sapiens, UniProt O00311). The assay is described as follows: Cdc7 biochemical assay Method 2: Cdc7/Dbf4 Enzyme TR-FRET Assay measuring pS40MCM2. As to conditions: pS40 MCM2 peptide, 1 μM ATP, 25° C., 120 minutes, read-out: Biochemical Method 2 (pIC50) (converted). As to the method: This protocol describes a method for assaying a compounds' ability to inhibit Cdc7 activity by measuring pS40MCM2 levels in a Cdc7/Dbf4 Enzyme TR-FRET Assay.
Chain of Cdc7/Dbf4 (O00311 whole entry): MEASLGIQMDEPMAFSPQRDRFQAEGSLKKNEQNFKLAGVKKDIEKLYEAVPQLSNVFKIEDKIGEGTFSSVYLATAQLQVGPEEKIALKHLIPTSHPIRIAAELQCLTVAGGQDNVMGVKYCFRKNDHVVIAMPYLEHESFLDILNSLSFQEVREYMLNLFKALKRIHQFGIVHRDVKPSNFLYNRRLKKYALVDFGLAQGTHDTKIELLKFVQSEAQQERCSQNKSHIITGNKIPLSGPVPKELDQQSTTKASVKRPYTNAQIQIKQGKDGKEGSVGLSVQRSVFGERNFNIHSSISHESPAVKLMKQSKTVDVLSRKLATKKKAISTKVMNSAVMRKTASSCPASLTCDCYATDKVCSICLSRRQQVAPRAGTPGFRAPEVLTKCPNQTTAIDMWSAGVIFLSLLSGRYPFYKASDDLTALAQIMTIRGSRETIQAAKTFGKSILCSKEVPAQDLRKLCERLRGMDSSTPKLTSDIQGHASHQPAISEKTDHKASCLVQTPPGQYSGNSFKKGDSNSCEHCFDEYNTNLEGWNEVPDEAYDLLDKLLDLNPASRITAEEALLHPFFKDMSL
Chain of Cdc7/Dbf4 (Q9UBU7 whole entry partner): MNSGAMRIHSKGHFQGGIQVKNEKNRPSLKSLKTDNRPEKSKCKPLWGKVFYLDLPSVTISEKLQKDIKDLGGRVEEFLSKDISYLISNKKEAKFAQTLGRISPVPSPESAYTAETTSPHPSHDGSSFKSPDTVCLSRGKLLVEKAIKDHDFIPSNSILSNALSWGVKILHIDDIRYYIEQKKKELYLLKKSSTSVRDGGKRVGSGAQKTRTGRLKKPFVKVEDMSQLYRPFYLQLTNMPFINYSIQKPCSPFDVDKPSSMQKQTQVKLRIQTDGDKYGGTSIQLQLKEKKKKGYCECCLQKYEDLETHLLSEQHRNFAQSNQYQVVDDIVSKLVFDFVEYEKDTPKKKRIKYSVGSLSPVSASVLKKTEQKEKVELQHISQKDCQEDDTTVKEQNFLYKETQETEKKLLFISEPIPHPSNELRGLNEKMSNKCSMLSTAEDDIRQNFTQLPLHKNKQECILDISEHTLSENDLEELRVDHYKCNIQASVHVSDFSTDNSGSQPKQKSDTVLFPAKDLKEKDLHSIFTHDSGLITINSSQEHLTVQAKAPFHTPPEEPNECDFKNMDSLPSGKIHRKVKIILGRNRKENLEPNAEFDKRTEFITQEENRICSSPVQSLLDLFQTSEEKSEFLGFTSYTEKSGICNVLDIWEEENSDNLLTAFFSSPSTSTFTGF
2.5 nM Cdc7/Dbf4 was incubated with 100 nM of biotin-labelled peptide 35-TDALTS(pS)PGRDLP in the presence of 1 μM ATP at 25° C. for 120 minutes. The phosphorylation of the peptide was detected using TR-FRET. Anti-Mcm2 (pS40) antibody, Terbium anti-rabbit secondary antibody and Streptavidin-Alexa Fluor488 form the detection system.
(In general: TR-FRET usually uses a lanthanide donor and a delayed reading to cut background.)

For assay [1], the target named is T1, Cdc7 (Homo sapiens, UniProt O00311). The assay is described as follows: Cdc7 cell pharmacodynamics assay Method 2: pS40MCM2 levels in HCT116 cells. It counts as cell-based. On the set-up: endogenous in cells. As to conditions: 18 hours treatment, read-out: Biomarker Method 2 (pEC50) (converted). An excerpt: This protocol describes a method to investigate the inhibition of Cdc7 activity by measuring pS40MCM2 levels in cells, after treatment with compounds.
T1 sequence (O00311 whole entry): as the sequence (O00311 whole entry) above
T1 sequence (Q9UBU7 whole entry partner): as the sequence (Q9UBU7 whole entry partner) above
• HCT116 cells (ATCC, #CCL-247) • McCoys 5A with L-glutamine (Cellgro, #10-050-CV) • 10% FCS (Cellgro, #35-010-CV) • D-PBS without CaCl2 and MgCl2 (Cellgro, #21-031-CV) • Trypsin/EDTA (Cellgro, #25-052-CL) • BSA (Calbiochem, 126593) • Cell Extraction Buffer (Invitrogen FNN0011) • Protease inhibitor cocktail (Sigma P-2714) • PMSF 0.3M stock in DMSO (Sigma P7626) • Antibody—rabbit pMCM2 Ser40 (Abeam, AB133243) • Antibody—goat MCM2 (Bethyl #A300-122A) • Antibody—goat Anti Rabbit IgG HRP (Thermo, 31462) • SuperSignal ELISA Pico Chemiluminescent Substrate (Perbio Science UK Ltd 37069) • 10×PBS (Growcells, MRGF-6236) • Triton X100 (Sigma, P-T8787) • DMSO (Fisher, D128-1) • 2-Propanol (J. T. Baker, 9095-03) Method • Seed 1×10^6 HCT116 cells into each of two 175 cm^2 flask containing 30 mL Cell Growth Media and incubate at 37° C., 5% CO2 for 3 days. • Harvest the cells from one T175 cm^2 flask and count. • Dilute with Cell Growth Media to a cell density of 2×10^5. Dispense 100 μL to each well (20,000 HCT116 cells/well) of TC treated 96-well plate(s). • Allow cells to settle overnight in incubator set at 37° C. and 5% CO2. • Cell treatment: Transfer 0.25 μL/well from the compound plate to the wells of the cell plate(s). This is a 1:400 dilution of compound in the assay. • Once all cells are treated place the cells back to the incubator and incubate for 18 hours. • Dilute the capture antibody (total MCM2 #A300-122A) 1 in 250 in the required volume of PBS (5 mL per assay plate, plus 5 mL for dead volume) and add 50 μL to each well of a Hybond plate except wells A12 & B12. Seal the plate and incubate at room temperature fora minimum of 2 hours. • Defrost aliquot of Invitrogen Cell Extraction Buffer (FNN0011) on ice and supplement with appropriate volume of both Sigma protease inhibitor cocktail (P-2714) and PMSF (final cone 1 mM from a 1 M stock in DMSO). • After the 6 hour or 18 hour cell treatment time, tap out the media from the assay plates and place them in the −70° C. freezer for at least 5 minutes. • Flick out the remaining liquid in the previously prepared capture Ab plate(s) and add 200 μL 2% BSA per well. Incubate for 1 hour at room temperature. • Remove plates from freezer and add 20 μL of ice cold complete lysis buffer. Incubate cells for 30 minutes at 4° C. • Add 30 μL per well 2% BSA • At the end of the 1 hour incubation, wash the Capture/ELISA plate(s) with Wash Buffer on the BioTek plate washer. • Transfer 40 μL per well of the lysis plate(s) to the same wells in the Capture/ELISA plate. Incubate cells overnight at 4° C. • At the end of the overnight incubation, wash the ELISA plate(s) with Wash Buffer on BioTek plate washer. • Prepare Detection Antibody Buffer and dispense 50 μL to all wells of ELISA plate(s) except wells G1 & H1. Cover plate and incubate at room temperature for 2 hours with gentle shaking. • At the end of the 2 hour incubation, wash the ELISA plate(s) with Wash Buffer on the BioTek plate washer. • Prepare the Conjugated Antibody Buffer and dispense 50 μL to all wells of ELISA plate(s). • Cover the plate and incubate at room temperature for 1 hour with gentle shaking. • At the end of the 1 hour incubation, wash the ELISA plate(s) with Wash Buffer on the BioTek plate washer. • Prepare Substrate Buffer and dispense 50 μL to all wells of ELISA plate(s). • Incubate for a minimum of 10 minutes and read plates on the EnVision 2100 Multilabel Reader (Mirror: Luminescence (404) & Luminescence 700 (212); Measurement Height: 6.5 mm; Measurement Time: 0.2 s). Method 3

In assay [2] the target is T1, Cdc7. Put plainly: Cdc7 cell pharmacodynamics assay Method 3: pS53MCM2 levels in SW48 cells. On the set-up: endogenous in cells; host or cells: SW48. Particulars: 6 hours treatment, read-out: Biomarker Method 3 (pEC50) (converted). It counts as cell-based. From the text:
This protocol describes a method to investigate the inhibition of Cdc7 activity by measuring pS53MCM2 levels in cells, after treatment with compounds.
• SW48 cells • RPMI 1640 (Sigma, R5886) • 10% FCS (Sera Laboratories International Ltd, EU000F Batch: 108005) • 100× L-Glutamine (Invitrogen, 25030-024) • D-Glucose Solution (10%) (Sigma, G8644) • HEPES Buffer Solution (Sigma, 83264) • Sodium Pyruvate (Sigma, S8636) • PBS (Fisger, BP399-4) • Trypsin/EDTA (Invitrogen 25300-054) • 2% BSA in PBS • Cell Extraction Buffer (Invitrogen FNN0011) • Protease inhibitor cocktail (Sigma P-2714) • PMSF 0.3M stock in DMSO (Sigma P7626) • Antibody—rabbit pMCM2 Ser53 (Bethyl #A300-756A) • Antibody—goat MCM2 (Bethyl #A300-122A) • Antibody—goat Anti Rabbit IgG HRP (Perbio Science UK Ltd 31462) • SuperSignal ELISA Pico Chemiluminescent Substrate (Perbio Science UK Ltd 37070) Method • Plate 30,000 SW48 cells per well in standard TC treated 96 well plate in 100 μL complete RPMI 1640 medium. • Allow cells to settle overnight in incubator set at 37° C. and 5% CO2. • Cell treatment: prepare a 384 well plate containing 80 μl PBS/well. The PBS should be at room temperature—to be referred to as intermediate plate. Transfer 2 μL of compound from mother plate to intermediate (daughter plate) 1:40 dilution, then 5 μL intermediate to cell (daughter) plate. • Once all cells are treated place the cells back to the incubator and incubate for 6 hours. • Dilute the capture antibody (total MCM2 #A300-122A) 1 in 250 in the required volume of PBS (5 mL per assay plate, plus 5 mL for dead volume) and add 50 μL to each well of a Hybond plate. Seal the plate and incubate at room temperature for a minimum of 2 hours. • Defrost aliquot of Invitrogen Cell Extraction Buffer (FNN0011) on ice and supplement with appropriate volume of both Sigma protease inhibitor cocktail (P-2714) and PMSF (final cone 1 mM from a 1 M stock in DMSO). • After the 6 hour cell treatment time, tap out the media from the assay plates and place them in the −80° C. freezer for at least 5 minutes. • Remove plates from freezer and add 20 μL of ice cold complete lysis buffer, with the multidrop. Incubate cells for 30 minutes at 4° C. • Add 80 μL per well 2% BSA. • Flick out the remaining liquid from the capture plate and transfer 80 μL from the lysis plate to the same wells in the capture/ELISA plate, using the Biomek. Cover with plate seal and incubate plates overnight at 4° C. • Wash plates with PBS, remove any residual remaining liquid and add 50 μL per well of pMCM2 Ser53 antibody (#A300-756A) diluted 1 in 100 in 2% BSA. Cover plate and incubate at room temperature for 2 hours with gentle shaking. • Wash plates with PBS, remove any residual remaining liquid and Incubate with 50 μL goat anti rabbit antibody (1 in 800 dilution in 2% BSA), for 1 hour at room temperature. • Wash plates with PBS, remove any residual remaining liquid and add 50 μL mixed SuperSignal Pico substrate. • Incubate each plate for 5 minutes at room temperature shielding the plates from direct light (with a cover plate). Read plates with the luminescent detection. Results

On to `O=c1[nH]c(-c2c[nH]c3ncccc23)nc(N2CCNCC(F)(F)C2)c1Cl` [Compound 52, 5-chloro-4-(6,6-difluoro-1,4-diazepan-1-yl)-2-(1H-pyrrolo[2,3-b]pyridin-3-yl)-1H-pyrimidin-6-one], for which the IC50 on Cdc7/Dbf4 is 7.08 nM. For the same compound, the EC50 is 851 nM at Cdc7 [1] and 5750 nM on Cdc7 [2].

As for `O=c1[nH]c(-c2cn[nH]c2C(F)(F)F)nc(N2CCOCC2)c1Cl` [Compound 47, 5-chloro-4-morpholino-2-[5-(trifluoromethyl)-1H-pyrazol-4-yl]-1H-pyrimidin-6-one], on Cdc7/Dbf4, the IC50 was 0.776 nM. Further, the EC50 on Cdc7 [1] is 38 nM; at Cdc7 [2], 1170 nM.

As for `C[C@@H]1COCCN1c1nc(-c2c[nH]c3ncccc23)[nH]c(=O)c1Cl` [Compound 53, 5-chloro-4-[(3R)-3-methylmorpholin-4-yl]-2-(1H-pyrrolo[2,3-b]pyridin-3-yl)-1H-pyrimidin-6-one], the IC50 on Cdc7/Dbf4 is 1.29 nM. The results for the EC50 at Cdc7 [1] and at Cdc7 [2] were 33.1 nM and 955 nM, respectively.

For the compound `O=c1[nH]c(-c2cn[nH]c2C(F)(F)F)nc(N2CCNCC(F)(F)C2)c1Cl` [Compound 45, 5-chloro-4-(6,6-difluoro-1,4-diazepan-1-yl)-2-[5-(trifluoromethyl)-1H-pyrazol-4-yl]-1H-pyrimidin-6-one], the IC50 at Cdc7/Dbf4 was 1.95 nM. The figures for the EC50 on Cdc7 [1] and on Cdc7 [2] were 44.7 nM and 1170 nM, respectively.
